# Test results as given in publication PMC11876601 (Molecular Systems Biology, 2025).
# Where two headings read alike, the source gives them in different places.
# Experiments:
# 13 PDAC cell lines = test: Phenotypic drug combination viability screen (ATPlite, 72 h), cell line panel; assay type: cell-based, human; settings: for number of cell lines with synergy with GEM: of 13 cell lines, Bliss model; for EC50: Homo sapiens
# [1] = tested on: p-sites in DNA-damaged AsPC-1 cells; test: decryptM dose-resolved phosphoproteomics of ATRi in GEM-pre-treated cells; assay type: cell-based, human; settings: for EC50: Homo sapiens
# Description: Cell culture medium was replaced 24 h after seeding. […] For time point 0, AsPC-1 cells were treated with a vehicle and lysed immediately. The final DMSO concentration in all experiments was 0.2%.
# Briefly, cells were washed twice with PBS and lysed in SDS lysis buffer (2% SDS in 40 mM Tris-HCl, pH 7.6), followed by sonication for 10 min (30 s on/30 s off) using a Bioruptor (Diagenode). For DNA hydrolysis, samples were boiled at 95 °C for 10 min and incubated with 2% trifluoroacetic acid (TFA) for 1 min, before the reaction was quenched using 4% N-methylmorpholine. Lysate was cleared by centrifugation at 11,000 × g for 5 min and protein concentration was determined using the Pierce BCA Protein Assay Kit (Thermo Scientific).
# Using 70% ethanol, samples were then precipitated on beads, followed by washing thrice with 80% ethanol and once with 100% acetonitrile. Subsequently, proteins were reduced and alkylated using 10 mM TCEP, 50 mM chloroacetamide, and 2 mM CaCl2 in 100 mM EPPS/NaOH, pH 8.5 for 1 h at 37 °C, followed by tryptic digestion at 37 °C for 16 h. Peptides were acidified with 1% TFA and desalted on Chromabond HLB plates (30 µm particle size, 10 mg capacity, Machery-Nagel), using 0.1% TFA for equilibration and sample loading, and 0.1% TFA in 70% acetonitrile for peptide elution. Recovered peptides were freeze-dried by vacuum-centrifugation and stored at −20 °C.
# Depending on the experiment, samples were either labeled with TMT-11plex (decryptM), TMT-10plex (non-decryptM, quadruplicates), or TMTpro reagent (time-series; all Thermo Scientific). Therefore, dried peptides were reconstituted in 15 µl 100 mM EPPS, pH 8.5 and each treatment condition was labeled with one channel of the respective TMT reagent (5 µl of 25 µg/µl reagent, Appendix Tables S4–S6). The reaction was incubated for 1 h at 23 °C and subsequently quenched with 0.4% hydroxylamine. Then, samples were pooled, acidified with 1% formic acid, and freeze-dried by vacuum-centrifugation. Labeled peptide pools were desalted on C18 Sep-Pak cartridges (37–55 µm particle size, 50 mg capacity, Waters), using 0.1% formic acid as equilibration solvent, and 0.1% formic acid in 60% acetonitrile was used as elution solvent. Eluted peptides were freeze-dried and stored at −20 °C until further use.
# Basic reversed-phase (bRP) fractionation of peptides was performed on a Vanquish HPLC (Thermo Scientific). In short, dried peptides were reconstituted in 200 µl 25 mM ammonium bicarbonate, pH 8.0 and directly injected onto a Waters BEH130 XBridge C18 column (3.5 µm, 4.6 × 250 mm). […] Using an automated fraction collector, 96 fractions were collected between min 7 and 55 after injection. Fractions were acidified with 1% formic acid and pooled to 48 fractions, before they were freeze-dried and stored at −20 °C.
# Immobilized metal ion affinity chromatography (IMAC) enrichment of phosphorylated peptides was performed on the Bravo automated liquid handling platform using AssayMAP Fe(III)-NTA cartridges (Agilent). In brief, the 48 dried peptide fractions were reconstituted in 0.1% TFA in 80% acetonitrile and further pooled to 12 fractions (200 µl final volume per well). The phosphopeptide enrichment protocol embedded in the Agilent AssayMAP Bravo Protein Sample Prep Workbench v2.0 software was run. Thereby, the cartridges were first primed with 150 μl 0.1% TFA in acetonitrile at 300 μl/min, and equilibrated with 150 μl 0.1% TFA in 80% acetonitrile at 10 μl/min. Then, pooled fractions were loaded at 5 µl/min and further washed three times with 150 μl 0.1% TFA in 80% acetonitrile at 50 μl/min. Enriched peptides were eluted with 60 μl 1% ammonium hydroxide at 5 μl/min.
compound,measurement,setting,value
C[C@]12O[C@H](C[C@]1(O)CO)n1c3ccccc3c3c4c(c5c6ccccc6n2c5c31)CNC4=O [Lestaurtinib],number of cell lines with synergy with GEM,13 PDAC cell lines,5 cell lines
COc1cc(N2CCC(N3CCN(C)CC3)CC2)ccc1Nc1ncc(Cl)c(Nc2ccccc2P(C)(C)=O)n1 [Brigatinib],number of cell lines with synergy with GEM,13 PDAC cell lines,5 cell lines
"Nc1ccn([C@@H]2O[C@H](CO)[C@@H](O)C2(F)F)c(=O)n1 [GEM, Gemcitabine]",EC50,"13 PDAC cell lines; read-out: EC50,GEM",< 10 nM
same,EC50,13 PDAC cell lines; read-out: EC50,≥ 1 nM
CNCc1ccc(-c2cc(-c3nc(-c4ccc(S(=O)(=O)C(C)C)cc4)cnc3N)on2)cc1 [Berzosertib],Log2 PTM response (GEM+ATRi vs. GEM),[1]; AASDHPPT-pS258,-2
same,Log2 PTM response (GEM+ATRi vs. GEM),[1]; BRCA1-pS1239,-1.2
same,Log2 PTM response (GEM+ATRi vs. GEM),[1]; BRD8-pS621,-2.5
same,Log2 PTM response (GEM+ATRi vs. GEM),[1]; CDKN2AIP-pS198,-2
same,Log2 PTM response (GEM+ATRi vs. GEM),[1]; CHEK1-pS317,-2.8
same,Log2 PTM response (GEM+ATRi vs. GEM),[1]; CHEK1-pS468,-2.9
same,Log2 PTM response (GEM+ATRi vs. GEM),[1]; DHX9-pS321,-2.3
same,Log2 PTM response (GEM+ATRi vs. GEM),[1]; EXO1-pS714,-2.7
same,Log2 PTM response (GEM+ATRi vs. GEM),[1]; FANCD2-pS319,-2.6
same,Log2 PTM response (GEM+ATRi vs. GEM),[1]; HDGF-pS103,-2.4
same,Log2 PTM response (GEM+ATRi vs. GEM),[1]; HMGA1-pS9,-3
same,Log2 PTM response (GEM+ATRi vs. GEM),[1]; HMGA1-pS36;S44,-1.4
same,Log2 PTM response (GEM+ATRi vs. GEM),[1]; HMGA1-pS44,-2.9
same,Log2 PTM response (GEM+ATRi vs. GEM),[1]; HSPA4-pS552,-2.1
same,Log2 PTM response (GEM+ATRi vs. GEM),[1]; HTATSF1-pS481,-2
same,EC50,"[1]; ASPC1, read-out: EC50 of the majority of pSQ/pTQ sites",~100 nM
same,EC50,"[1]; ASPC1, read-out: pEC50 of the majority of pSQ/pTQ sites (converted)",~100 nM
same,EC50,"[1]; ASPC1, p-site dose-response in GEM-pre-treated cells, read-out: EC50, PPM1G S201",61.6 nM
same,EC50,"[1]; ASPC1, p-site dose-response in GEM-pre-treated cells, read-out: EC50, RALY S176",124 nM
same,EC50,"[1]; ASPC1, p-site dose-response in GEM-pre-treated cells, read-out: pEC50, PPM1G S201 (converted)",61.7 nM
same,EC50,"[1]; ASPC1, p-site dose-response in GEM-pre-treated cells, read-out: pEC50, RALY S176 (converted)",126 nM
same,EC50,"[1]; ASPC1, read-out: median EC50 across all drug-regulated pSQ/pTQ-sites",188 nM
same,Log2 PTM response (GEM+ATRi vs. GEM),[1]; LRRC42-pS385,-3.3
same,Log2 PTM response (GEM+ATRi vs. GEM),[1]; NBN-pS397,-1.8
same,Log2 PTM response (GEM+ATRi vs. GEM),[1]; NBN-pS615,-0.9
same,Log2 PTM response (GEM+ATRi vs. GEM),[1]; NSUN5-pS432,-3.5
same,Log2 PTM response (GEM+ATRi vs. GEM),[1]; PELP1-pS1033,-1.4
same,Log2 PTM response (GEM+ATRi vs. GEM),[1]; PHF14-pS294,-1.9
same,Log2 PTM response (GEM+ATRi vs. GEM),[1]; PNISR-pS706,-2.2
same,Log2 PTM response (GEM+ATRi vs. GEM),[1]; PPM1G-pS201,-3.5
same,Log2 PTM response (GEM+ATRi vs. GEM),[1]; PPP6R3-pS825,-1.4
same,Log2 PTM response (GEM+ATRi vs. GEM),[1]; PSMD4-pS266,-1.6
same,Log2 PTM response (GEM+ATRi vs. GEM),[1]; RAD18-pS368,-1
same,Log2 PTM response (GEM+ATRi vs. GEM),[1]; RIF1-pS1873,-2.2
same,Log2 PTM response (GEM+ATRi vs. GEM),[1]; SNRPA-pS115,-1.2
same,Log2 PTM response (GEM+ATRi vs. GEM),[1]; TCEA1-pS100;S97,-1
same,Log2 PTM response (GEM+ATRi vs. GEM),[1]; TCEB3-pS251,-2.1
same,Log2 PTM response (GEM+ATRi vs. GEM),[1]; TOPBP1-pS1504,-1.9
same,Log2 PTM response (GEM+ATRi vs. GEM),[1]; TSEN34-pS136,-1.2
same,Log2 PTM response (GEM+ATRi vs. GEM),[1]; UHRF1-pS393,-2.3
same,Log2 PTM response (GEM+ATRi vs. GEM),[1]; UIMC1-pS171,-1.5
same,Log2 PTM response (GEM+ATRi vs. GEM),[1]; ZC3H14-pS135,-1.5
same,"ATRi Regulation (Curve), PPM1G S201",[1]; classified by CurveCurator,down
same,"ATRi Regulation (Curve), RALY S176",[1]; classified by CurveCurator,down
same,PTM response (norm. to 1 µM GEM),"[1]; source data 4B (p-site not named), 1 µM GEM + ATRi 1 nM",1.08
same,PTM response (norm. to 1 µM GEM),"[1]; source data 4B (p-site not named), 1 µM GEM + ATRi 3 nM",1.06
same,PTM response (norm. to 1 µM GEM),"[1]; source data 4B (p-site not named), 1 µM GEM + ATRi 10 nM",0.94
same,PTM response (norm. to 1 µM GEM),"[1]; source data 4B (p-site not named), 1 µM GEM + ATRi 30 nM",1.20
same,PTM response (norm. to 1 µM GEM),"[1]; source data 4B (p-site not named), 1 µM GEM + ATRi 100 nM",0.78
same,PTM response (norm. to 1 µM GEM),"[1]; source data 4B (p-site not named), 1 µM GEM + ATRi 300 nM",0.40
same,PTM response (norm. to 1 µM GEM),"[1]; source data 4B (p-site not named), 1 µM GEM + ATRi 1000 nM",0.20
same,PTM response (norm. to 1 µM GEM),"[1]; source data 4B (p-site not named), 1 µM GEM + ATRi 3000 nM",0.14
same,PTM response (norm. to 1 µM GEM),"[1]; source data 4B (p-site not named), 1 µM GEM + ATRi 10000 nM",0.15
same,PTM response (norm. to 1 µM GEM),"[1]; source data 5B (p-site not named), 1 µM GEM + ATRi 1 nM",0.81
same,PTM response (norm. to 1 µM GEM),"[1]; source data 5B (p-site not named), 1 µM GEM + ATRi 3 nM",0.96
same,PTM response (norm. to 1 µM GEM),"[1]; source data 5B (p-site not named), 1 µM GEM + ATRi 10 nM",0.69
same,PTM response (norm. to 1 µM GEM),"[1]; source data 5B (p-site not named), 1 µM GEM + ATRi 30 nM",0.83
same,PTM response (norm. to 1 µM GEM),"[1]; source data 5B (p-site not named), 1 µM GEM + ATRi 100 nM",0.51
same,PTM response (norm. to 1 µM GEM),"[1]; source data 5B (p-site not named), 1 µM GEM + ATRi 300 nM",0.19
same,PTM response (norm. to 1 µM GEM),"[1]; source data 5B (p-site not named), 1 µM GEM + ATRi 1000 nM",0.12
same,PTM response (norm. to 1 µM GEM),"[1]; source data 5B (p-site not named), 1 µM GEM + ATRi 3000 nM",0.13
same,PTM response (norm. to 1 µM GEM),"[1]; source data 5B (p-site not named), 1 µM GEM + ATRi 10000 nM",0.12
